Source: US8772480B2, “Inhibitors of PI3 kinase and/or mTOR” (priority 2009, dated 2014)

What was measured:
[1] = molecular target: PI3Kα (Homo sapiens (Human), UniProt P42336); conditions: read-out: PI3Kα AlphaScreen ® Ki
[2] = tested on: phosphorylation of Akt at Serine 473 in U87 MG cells; test: cells; conditions: Homo sapiens, U-87 MG, 2 h, read-out: U87Cell IC50, pAkt (Ser 473), U87 MG cells, two hours with compound

Chain of PI3Kα (P42336 whole entry): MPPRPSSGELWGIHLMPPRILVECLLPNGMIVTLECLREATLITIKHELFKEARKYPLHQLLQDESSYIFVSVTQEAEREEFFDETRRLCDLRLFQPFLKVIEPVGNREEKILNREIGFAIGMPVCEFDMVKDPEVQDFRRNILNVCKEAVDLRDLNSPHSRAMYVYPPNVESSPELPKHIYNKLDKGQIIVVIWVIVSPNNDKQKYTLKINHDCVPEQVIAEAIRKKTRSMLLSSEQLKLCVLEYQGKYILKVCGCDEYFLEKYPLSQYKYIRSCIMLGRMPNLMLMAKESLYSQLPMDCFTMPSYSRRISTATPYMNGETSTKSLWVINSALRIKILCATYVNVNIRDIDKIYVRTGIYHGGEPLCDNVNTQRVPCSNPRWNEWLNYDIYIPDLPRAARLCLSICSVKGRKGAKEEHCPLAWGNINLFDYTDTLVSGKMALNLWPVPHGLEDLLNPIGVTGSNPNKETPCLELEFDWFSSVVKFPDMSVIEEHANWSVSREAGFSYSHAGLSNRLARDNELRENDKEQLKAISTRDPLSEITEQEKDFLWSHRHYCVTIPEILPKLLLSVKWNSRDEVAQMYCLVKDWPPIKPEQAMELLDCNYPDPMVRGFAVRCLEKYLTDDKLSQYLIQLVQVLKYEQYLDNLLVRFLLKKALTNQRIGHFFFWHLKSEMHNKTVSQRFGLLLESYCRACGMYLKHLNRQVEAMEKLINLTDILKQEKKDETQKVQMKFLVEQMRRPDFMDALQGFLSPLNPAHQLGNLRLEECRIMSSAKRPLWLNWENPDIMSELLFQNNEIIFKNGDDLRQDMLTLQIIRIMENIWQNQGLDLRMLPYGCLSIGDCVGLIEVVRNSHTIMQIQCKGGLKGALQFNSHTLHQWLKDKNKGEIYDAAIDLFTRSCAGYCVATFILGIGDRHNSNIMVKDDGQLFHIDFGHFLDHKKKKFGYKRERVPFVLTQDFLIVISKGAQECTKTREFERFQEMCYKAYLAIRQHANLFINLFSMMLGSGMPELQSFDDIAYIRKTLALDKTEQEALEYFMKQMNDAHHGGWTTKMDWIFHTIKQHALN
Chain of PI3Kα (P27986 whole entry partner): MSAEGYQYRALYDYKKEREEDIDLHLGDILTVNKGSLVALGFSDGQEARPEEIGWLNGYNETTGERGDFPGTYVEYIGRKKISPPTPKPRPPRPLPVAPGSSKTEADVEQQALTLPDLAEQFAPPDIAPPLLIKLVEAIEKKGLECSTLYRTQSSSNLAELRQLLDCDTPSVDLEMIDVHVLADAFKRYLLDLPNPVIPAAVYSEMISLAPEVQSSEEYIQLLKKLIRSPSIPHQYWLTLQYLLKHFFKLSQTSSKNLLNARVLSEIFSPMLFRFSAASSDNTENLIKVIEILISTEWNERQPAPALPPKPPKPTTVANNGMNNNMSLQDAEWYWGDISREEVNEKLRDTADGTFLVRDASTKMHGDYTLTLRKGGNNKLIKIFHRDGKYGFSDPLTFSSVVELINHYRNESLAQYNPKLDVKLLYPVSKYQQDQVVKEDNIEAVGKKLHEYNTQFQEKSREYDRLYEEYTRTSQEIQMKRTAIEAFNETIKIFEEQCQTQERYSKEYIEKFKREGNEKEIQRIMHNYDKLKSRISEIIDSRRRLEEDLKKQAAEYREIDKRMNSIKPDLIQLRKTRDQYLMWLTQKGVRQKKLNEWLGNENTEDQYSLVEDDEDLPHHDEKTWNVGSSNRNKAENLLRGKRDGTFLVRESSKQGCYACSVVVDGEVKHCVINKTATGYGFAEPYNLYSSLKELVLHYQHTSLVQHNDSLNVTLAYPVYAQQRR

Row | SMILES | Ki [1] [nM] | IC50 [2] [nM]
1 | COc1ccc(Nc2ncc([C@H](C)N3CCN(S(C)(=O)=O)CC3)cc2-c2nc(C)nc(N)n2)cn1 [Example 145, (S)-4-(2-(6-Methoxypyridin-3-Ylamino)-5-(1-(4-(Methylsulfonyl)Piperazin-1-yl)Ethyl)Pyridin-3-yl)-6-Methyl-1,3,5-Triazin-2-Amine] | 8 | 8
2 | COc1ccc(Nc2ncc([C@@H](C)N3CCN(S(C)(=O)=O)CC3)cc2-c2nc(C)nc(N)n2)cn1 [Example 146, (R)-4-(2-(6-Methoxypyridin-3-Ylamino)-5-(1-(4-(Methylsulfonyl)Piperazin-1-yl)Ethyl)Pyridin-3-yl)-6-Methyl-1,3,5-Triazin-2-Amine] | 6 | 7
3 | COc1ccc(Nc2ncc(C(C)c3ccc(S(C)(=O)=O)cc3)cc2-c2nc(C)nc(N)n2)cn1 (stereo not drawn) [Example 149, 4-(2-(6-Methoxypyridin-3-Ylamino)-5-(1-(4-(Methylsulfonyl)Phenyl)Ethyl)Pyridin-3-yl)-6-Methyl-1,3,5-Triazin-2-Amine] | 5 | 53
4 | COc1ncc(Nc2ncc(C(C)c3ccc(S(C)(=O)=O)cc3)cc2-c2nc(C)nc(N)n2)cc1F (stereo not drawn) [Example 150, 4-(2-(5-Fluoro-6-Methoxypyridin-3-Ylamino)-5-(1-(4-(Methylsulfonyl)Phenyl)Ethyl)Pyridin-3-yl)-6-Methyl-1,3,5-Triazin-2-Amine] | 1 | 11
5 | COc1ccc(Nc2ncc(C(=O)N3CCOCC3)cc2-c2nc(C)nc(N)n2)cn1 [Example 151, 4-(2-((6-Methoxy-3-Pyridinyl)Amino)-5-(4-Morpholinylcarbonyl)-3-Pyridinyl)-6-Methyl-1,3,5-Triazin-2-Amine] | 64 | 143
6 | COCCNC(=O)c1cnc(Nc2ccc(OC)nc2)c(-c2nc(C)nc(N)n2)c1 [Example 153, 5-(4-Amino-6-Methyl-1,3,5-Triazin-2-yl)-N-(2-Methoxyethyl)-6-((6-Methoxy-3-Pyridinyl)Amino)-3-Pyridinecarboxamide] | 21 | 110
7 | COc1ccc(Nc2ncc(CN3CCOCC3=O)cc2-c2nc(C)nc(N)n2)cn1 [Example 154, 4-((5-(4-Amino-6-Methyl-1,3,5-Triazin-2-yl)-6-((6-Methoxy-3-Pyridinyl)Amino)-3-Pyridinyl)Methyl)-3-Morpholinone] | 33 | 79
8 | COc1ccc(Nc2ncc(CN3CCN(S(C)(=O)=O)C[C@H]3C)cc2-c2nc(C)nc(N)n2)cn1 [Example 158, (R)-4-(2-(6-Methoxypyridin-3-Ylamino)-5-((2-Methyl-4-(Methylsulfonyl)Piperazin-1-yl)Methyl)Pyridin-3-yl)-6-Methyl-1,3,5-Triazin-2-Amine] | 7 | 16
9 | COc1ncc(Nc2ncc(CN3CCN(C(=O)N(C)C)CC3)cc2-c2nc(C)nc(N)n2)cc1F [Example 159, 4-((5-(4-Amino-6-Methyl-1,3,5-Triazin-2-yl)-6-(5-Fluoro-6-Methoxypyridin-3-Ylamino)Pyridin-3-yl)Methyl)-N,N-Dimethylpiperazine-1-Carboxamide] | 11 | 11
10 | Cc1nc(N)nc(-c2cc(CN3CCN(C(=O)N(C)C)CC3)cnc2Nc2cnc(O)c(F)c2)n1 [Example 160, 4-((5-(4-Amino-6-Methyl-1,3,5-Triazin-2-yl)-6-(5-Fluoro-6-Hydroxypyridin-3-Ylamino)Pyridin-3-yl)Methyl)-N,N-Dimethylpiperazine-1-Carboxamide] | 505 | 3170
11 | Cc1nc(N)nc(-c2cc(CN3CCN(S(C)(=O)=O)CC3)cnc2Nc2cnc(O)c(F)c2)n1 [Example 161, 5-(3-(4-Amino-6-Methyl-1,3,5-Triazin-2-yl)-5-((4-(Methylsulfonyl)Piperazin-1-yl)Methyl)Pyridin-2-Ylamino)-3-Fluoropyridin-2-ol] | 36 | 73
12 | CNc1nc(C)nc(-c2cc(CN3CCN(S(C)(=O)=O)CC3)cnc2Nc2ccc(OC)nc2)n1 [Example 163, 4-(2-(6-Methoxypyridin-3-Ylamino)-5-((4-(Methylsulfonyl)Piperazin-1-yl)Methyl)Pyridin-3-yl)-N,6-Dimethyl-1,3,5-Triazin-2-Amine] | 7 | 30
13 | Cc1nc(N)nc(-c2cccnc2Nc2cccc(OC(F)F)c2)n1 [Example 164, 4-(2-(3-(Difluoromethoxy)Phenylamino)Pyridin-3-yl)-6-Methyl-1,3,5-Triazin-2-Amine] | 963 | > 10000
14 | COc1ccc(Nc2ncccc2-c2nc(C)nc(N)n2)cc1F [Example 166, 4-(2-(3-Fluoro-4-Methoxyphenylamino)Pyridin-3-yl)-6-Methyl-1,3,5-Triazin-2-Amine] | 177 | 902
15 | Cc1nc(N)nc(-c2cccnc2Nc2ccc3c(c2)OC(F)(F)O3)n1 [Example 168, 4-(2-(2,2-Difluorobenzo[D][1,3]Dioxol-5-Ylamino)Pyridin-3-yl)-6-Methyl-1,3,5-Triazin-2-Amine] | 610 | > 10000
16 | COc1ccc(Nc2ncc(-c3ccc(OC)nc3)cc2-c2nc(C)nc(N)n2)cn1 [Example 169, 5-(4-Amino-6-Methyl-1,3,5-Triazin-2-yl)-6′-Methoxy-N-(6-Methoxypyridin-3-yl)-3,3′-Bipyridin-6-Amine] | 17 | 105
17 | COc1ccc(Nc2ncccc2-c2nc(C)nc(N)n2)cc1OC [Example 170, 4-(2-(3,4-Dimethoxyphenylamino)Pyridin-3-yl)-6-Methyl-1,3,5-Triazin-2-Amine] | 560 | 596

Row | SMILES | Ki [1] [nM] | IC50 [2] [nM]
18 | Cc1ccc2cc(Nc3ncccc3-c3nc(C)nc(N)n3)ccc2n1 [Example 171, N-(3-(4-Amino-6-Methyl-1,3,5-Triazin-2-yl)Pyridin-2-yl)-2-Methylquinolin-6-Amine] | 611 | > 10000
19 | COc1ccc(Nc2ncc(-c3ccccn3)cc2-c2nc(C)nc(N)n2)cn1 [Example 172, 5′-(4-Amino-6-Methyl-1,3,5-Triazin-2-yl)-N-(6-Methoxypyridin-3-yl)-2,3′-Bipyridin-6′-Amine] | 6 | 58
20 | COc1ncc(Nc2ncccc2-c2nc(C)nc(N)n2)cc1Cl [Example 173, 4-(2-(5-Chloro-6-Methoxypyridin-3-Ylamino)Pyridin-3-yl)-6-Methyl-1,3,5-Triazin-2-Amine] | 60 | 353
21 | Cc1cncc(Nc2ncccc2-c2nc(C)nc(N)n2)c1 [Example 174, 4-Methyl-6-(2-(5-Methylpyridin-3-Ylamino)Pyridin-3-yl)-1,3,5-Triazin-2-Amine] | 455 | > 10000
22 | COc1ncc(Nc2nc(-c3ccncc3)ccc2-c2nc(C)nc(N)n2)cc1F [Example 175, 5-(4-Amino-6-Methyl-1,3,5-Triazin-2-yl)-N-(5-Fluoro-6-Methoxypyridin-3-yl)-2,4′-Bipyridin-6-Amine] | 63 | > 10000
23 | COc1ncc(Nc2ncc(C(=O)N3CCC(O)CC3)cc2-c2nc(C)nc(N)n2)cc1F [Example 176, (5-(4-amino-6-methyl-1,3,5-triazin-2-yl)-6-(5-fluoro-6-methoxypyridin-3-ylamino)pyridin-3-yl)(4-hydroxypiperidin-1-yl)methanone] | 44 | 134
24 | COc1ccc(Nc2ncc(CN3CCN(S(C)(=O)=O)CC3)cc2-c2cc(N)nc(C)n2)cn1 [Example 178, 6-(2-(6-Methoxypyridin-3-Ylamino)-5-((4-(Methylsulfonyl)Piperazin-1-yl)Methyl)Pyridin-3-yl)-2-Methylpyrimidin-4-Amine] | 6 | 50
25 | Cc1nc(N)cc(-c2nc3ccccc3nc2Nc2cccc3[nH]ncc23)n1 [Example 180, 3-(6-Amino-2-Methylpyrimidin-4-yl)-N-(1H-Indazol-4-yl)Quinoxalin-2-Amine] | 124 | 1570
26 | CC(=O)Nc1ccc(Nc2ncccc2-c2nc(C)nc3[nH]cnc23)cc1Cl [Example 181, N-(2-Chloro-4-(3-(2-Methyl-9H-Purin-6-yl)Pyridin-2-Ylamino)Phenyl)Acetamide] | 754 | 562
27 | COc1cncc(Nc2ncccc2-c2nc(C)nc3[nH]cnc23)c1 [Example 183, N-(5-Methoxypyridin-3-yl)-3-(2-Methyl-9H-Purin-6-yl)Pyridin-2-Amine] | 26 | 446
28 | Cc1nc(N)nc(-c2cc(F)cnc2Nc2cncc(F)c2)n1 [Example 186, 4-(5-Fluoro-2-(5-Fluoropyridin-3-Ylamino)Pyridin-3-yl)-6-Methyl-1,3,5-Triazin-2-Amine] | 851 | > 10000
29 | COc1ncc(Nc2ncc(C=O)cc2-c2nc(C)nc(N)n2)cc1F [Example 187, 5-(4-Amino-6-Methyl-1,3,5-Triazin-2-yl)-6-(5-Fluoro-6-Methoxypyridin-3-Ylamino)Nicotinaldehyde] | 13 | 18
30 | Cc1nc(N)nc(-c2cc(Cl)cnc2NC2CCOCC2)n1 [Example 188, 4-(5-Chloro-2-(Tetrahydro-2H-Pyran-4-Ylamino)Pyridin-3-yl)-6-Methyl-1,3,5-Triazin-2-Amine] | 2080 | > 10000
31 | COCCNc1nc(C)nc(-c2cc(Cl)cnc2Nc2cnc(OC)c(F)c2)n1 [Example 189, 4-(5-Chloro-2-(5-Fluoro-6-Methoxypyridin-3-Ylamino)Pyridin-3-yl)-N-(2-Methoxyethyl)-6-Methyl-1,3,5-Triazin-2-Amine] | 409 | > 10000
32 | Cc1nc(N)nc(-c2cccnc2Nc2ccc(NC(=O)NC(C)C)nc2)n1 [Example 192, 1-(5-(3-(4-Amino-6-Methyl-1,3,5-Triazin-2-yl)Pyridin-2-Ylamino)Pyridin-2-yl)-3-Isopropylurea] | 691 | 941
33 | COCCOc1ccc(NC(=O)Nc2ccc(Nc3ncc(Cl)cc3-c3nc(C)nc(N)n3)cn2)cc1 [Example 195, 1-(5-(3-(4-Amino-6-Methyl-1,3,5-Triazin-2-yl)-5-Chloropyridin-2-Ylamino)Pyridin-2-yl)-3-(4-(2-Methoxyethoxy)Phenyl)Urea] | 16 | > 10000
